From patent publication EP2767544A1, “AMORPHOUS SUBSTANCE OF 17 -ACETOXY-11 -(4-N,N-DIMETHYLAMINOPHENYL)-19-NORPREGNA-4,9-DIENE-3,20-DIONE AND PREPARATION METHOD THEREOF” (Shanghai Cdymax Pharmaceuticals Co., Ltd., priority 2011, dated 2013)

Assays:
[1] = Solubility test: apparent solubility in water, supernatant concentration determined by HPLC; settings: for apparent solubility: excess sample in 0.5ml of water, ultrasonic approx. 3 minutes, standing 30 minutes at room temperature, supernatant by HPLC, 30 min
Method: After standing for 30 minutes at room temperature, separate the supernatant by centrifugation. Determine the concentration of sample in supernatant by HPLC (defined as apparent solubility).

[2] = Hygroscopicity test using a microbalance; type: physicochemical; settings: 25 °C, relative humidity of 5% to 95%, Figure 2
Method: Evaluate hygroscopicity of the amorphous substance using a microbalance (MBA300W, WTI Company, USA). Hang the sample placed on the glass rack in an apparatus that preconditioned at 25 °C, and track the changes of sample weight at a relative humidity of 5% to 95%. Measure the weight of sample at each measurement point (relative humidity) at 2 minutes intervals. The final value was the weight unit at a time point that the variability is less than 0.2%.

[3] = Stability test: heat treatment under reduced pressure, analysed by XRPD, DSC, TGA and IR; type: physicochemical; settings: dried under reduced pressure at 80 °C for 8 hours, then in vacuum for 15 hours, TGA
Method: Dry the samples of the amorphous CDB-2914 obtained in the above-mentioned examples under reduced pressure at 80 °C for 8 hours, and then dry in vacuum for 15 hours.

Row | Compound | apparent solubility [1] | hygroscopicity [2] | thermal stability (solid form after heat treatment) [3] | solubility relative to crystal form A ([1]; apparent solubility in water, amorphous versus crystal form A)
1 | CC(=O)O[C@]1(C(C)=O)CC[C@H]2[C@@H]3CCC4=CC(=O)CCC4=C3[C@@H](c3ccc(N(C)C)cc3)C[C@@]21C [Known crystal(crystal form A), 17α-acetoxy-11β-(4-N,N-dimethylaminophenyl)-19-norpregna-4,9-diene-3,20-dione, reference compound] | 0.125 µg/mL | – | – | –
2 | CC(=O)O[C@]1(C(C)=O)CC[C@H]2[C@@H]3CCC4=CC(=O)CCC4=C3[C@@H](c3ccc(N(C)C)cc3)C[C@@]21C [amorphous form, 17α-acetoxy-11β-(4-N,N-dimethylaminophenyl)-19-norpregna-4,9-diene-3,20-dione] | 1 µg/mL | low hygroscopicity | remained amorphous | 8 times
